# Experiments:
# [1] = tested on: Klebsiella pneumoniae ATCC 13883; assay: Broth microdilution MIC/MBC; conditions: ATCC13883
# [2] = tested on: Bordetella bronchiseptica ATCC 4617; assay: Broth microdilution MIC/MBC; conditions: ATCC4617
# [3] = tested on: Staphylococcus aureus ATCC 25923; assay: Broth microdilution MIC/MBC; conditions: Staphylococcus aureus, ATCC25923
# [4] = tested on: Bacillus subtilis ATCC 6633; assay: Broth microdilution MIC/MBC; conditions: ATCC6633
# [5] = tested on: Pseudomonas aeruginosa ATCC 9027; assay: Broth microdilution MIC/MBC; conditions: ATCC9027
# [6] = tested on: Staphylococcus aureus ATCC 29213; assay: Broth microdilution MIC/MBC; conditions: ATCC29213
# [7] = tested on: Staphylococcus aureus ATCC 43300; assay: Broth microdilution MIC/MBC; conditions: ATCC43300 / MRSA
# HeLa cell line = assay: MTT cytotoxicity assay; assay type: cell-based
# Method: (§1) Among all the newly synthesized compounds, four compounds designated as: 14, 20, 21 and 27 were selected for further testing of their cytotoxic properties at the doses of 10, 25, 50, 75 and 100 µM. The cytotoxic properties of the above compounds were tested on the cancer cell lines, i.e., A549 (ECACC 86012804) (non-small-cell lung cancer), T47D (ECACC 85102201) (breast cancer), HeLa (ATCC® CCL-2™) (cervical cancer) and normal line L929 (NCTC clone 929, ATCC® CCL-1™) (mouse fibroblasts) using the MTT test for 24- and 48 h cultures.
# (§2) A549 (ECACC 86012804) (non-small-cell lung cancer) and T47D (ECACC 85102201) (breast cancer) were obtained from ECACC and propagated in Dulbecco’s Minimal Essential Medium, supplemented with 2 mM of glutamine, antibiotics ([…] streptomycin, 1% of 100 U/L penicillin) and 10% Fetal Bovine Serum. HeLa (ATCC® CCL-2™) (cervical cancer) and L929 (NCTC clone 929, ATCC® CCL-1™) (mouse fibroblasts) cell lines were obtained from ATCC and propagated in the Eagle Minimal Essential Medium supplemented with antibiotics ([…] streptomycin, 1% of 100 U/L penicillin) and with 10% and 5% FBS, respectively. The cell line was routinely grown in 75 cm^2 tissue culture flasks and kept in an incubator (humidified atmosphere of 5% CO2 at 37 °C). All examined cell lines were tested against mycoplasma contamination with microbiological assays.
# (§3) The cell viability of tested compounds (14, 20, 21 and 27) was assessed by the MTT assay. In brief, the exponentially growing cells were plated in 100 μL/well in 96-well plates. After 24 h culturing, the cells were treated with different concentrations of compounds (range 10–100 μM). After 24 and 48 h of incubation, 10 μL of 5 mg/mL MTT was added to each well and the plates were incubated at 37 °C for additional 4 h. The medium was subsequently removed, the purple-colored precipitates of formazan were dissolved in 100 μL of DMSO. The color absorbance was recorded at 570 nm using a BioTek model EPOCH ELISA plate reader. All experiments were performed in triplicate. The absorbance values were in the range of linearity of the Lambert–Beer law.
# A549 cell line = assay: MTT cytotoxicity assay; assay type: cell-based
# Method: as §1, §2, §3
# T47D cell line = assay: MTT cytotoxicity assay; assay type: cell-based
# Method: as §1, §2, §3
# [8] = tested on: Bacillus cereus ATCC 10876; assay: Broth microdilution MIC/MBC; conditions: Bacillus cereus, ATCC10876
smiles,measurement,setting,value
"O=C(N/N=C/c1cc(Cl)cc(I)c1O)c1cccc(I)c1 [Compound 20, N-[(5-chloro-2-hydroxy-3-iodophenyl)methylidene]-3-iodobenzohydrazide]",MBC,[1],> 1000 µg/mL
same,MBC/MIC,[1],> 2
same,MIC,[1],500 µg/mL
same,melting point,,205 to 208 °C
same,MBC,[2],> 1000 µg/mL
same,MBC/MIC,[2],> 2
same,MIC,[2],500 µg/mL
same,MBC,[3],3.91 µg/mL
same,MIC,[3],1.95 µg/mL
same,MBC,[4],31.2 µg/mL
same,MIC,[4],7.81 µg/mL
same,MBC,[5],> 1000 µg/mL
same,MBC/MIC,[5],> 2
same,MIC,[5],500 µg/mL
same,MBC,[6],3.91 µg/mL
same,MIC,[6],3.91 µg/mL
same,MBC,[7],7.81 µg/mL
same,MIC,[7],3.91 µg/mL
same,cell proliferation,"HeLa cell line; 24h, 10 µM, Repeat No 1",87%
same,cell proliferation,"HeLa cell line; 24h, 10 µM, Repeat No 2",92%
same,cell proliferation,"HeLa cell line; 24h, 25 µM, Repeat No 1",81%
same,cell proliferation,"HeLa cell line; 24h, 25 µM, Repeat No 2",88%
same,cell proliferation,"HeLa cell line; 24h, 50 µM, Repeat No 1",78%
same,cell proliferation,"HeLa cell line; 24h, 50 µM, Repeat No 2",83%
same,cell proliferation,"HeLa cell line; 24h, 75 µM, Repeat No 1",85%
same,cell proliferation,"HeLa cell line; 24h, 75 µM, Repeat No 2",91%
same,cell proliferation,"HeLa cell line; 24h, 100 µM, Repeat No 1",81%
same,cell proliferation,"HeLa cell line; 24h, 100 µM, Repeat No 2",79%
same,cell proliferation,"HeLa cell line; 48h, 10 µM, Repeat No 1",88%
same,cell proliferation,"HeLa cell line; 48h, 10 µM, Repeat No 2",91%
same,cell proliferation,"HeLa cell line; 48h, 25 µM, Repeat No 1",73%
same,cell proliferation,"HeLa cell line; 48h, 25 µM, Repeat No 2",75%
same,cell proliferation,"HeLa cell line; 48h, 50 µM, Repeat No 1",87%
same,cell proliferation,"HeLa cell line; 48h, 50 µM, Repeat No 2",91%
same,cell proliferation,"HeLa cell line; 48h, 75 µM, Repeat No 1",99%
same,cell proliferation,"HeLa cell line; 48h, 75 µM, Repeat No 2",96%
same,cell proliferation,"HeLa cell line; 48h, 100 µM, Repeat No 1",93%
same,cell proliferation,"HeLa cell line; 48h, 100 µM, Repeat No 2",94%
same,cell proliferation,"A549 cell line; A549, 24h, 10 µM, Repeat No 1",87%
same,cell proliferation,"A549 cell line; A549, 24h, 10 µM, Repeat No 2",92%
same,cell proliferation,"A549 cell line; A549, 24h, 25 µM, Repeat No 1",83%
same,cell proliferation,"A549 cell line; A549, 24h, 25 µM, Repeat No 2",91%
same,cell proliferation,"A549 cell line; A549, 24h, 50 µM, Repeat No 1",83%
same,cell proliferation,"A549 cell line; A549, 24h, 50 µM, Repeat No 2",87%
same,cell proliferation,"A549 cell line; A549, 24h, 75 µM, Repeat No 1",91%
same,cell proliferation,"A549 cell line; A549, 24h, 75 µM, Repeat No 2",95%
same,cell proliferation,"A549 cell line; A549, 24h, 100 µM, Repeat No 1",90%
same,cell proliferation,"A549 cell line; A549, 24h, 100 µM, Repeat No 2",93%
same,cell proliferation,"A549 cell line; A549, 48h, 10 µM, Repeat No 1",88%
same,cell proliferation,"A549 cell line; A549, 48h, 10 µM, Repeat No 2",84%
same,cell proliferation,"A549 cell line; A549, 48h, 25 µM, Repeat No 1",79%
same,cell proliferation,"A549 cell line; A549, 48h, 25 µM, Repeat No 2",83%
same,cell proliferation,"A549 cell line; A549, 48h, 50 µM, Repeat No 1",88%
same,cell proliferation,"A549 cell line; A549, 48h, 50 µM, Repeat No 2",92%
same,cell proliferation,"A549 cell line; A549, 48h, 75 µM, Repeat No 1",99%
same,cell proliferation,"A549 cell line; A549, 48h, 75 µM, Repeat No 2",95%
same,cell proliferation,"A549 cell line; A549, 48h, 100 µM, Repeat No 1",91%
same,cell proliferation,"A549 cell line; A549, 48h, 100 µM, Repeat No 2",93%
same,cell proliferation,"T47D cell line; 24h, 10 µM, Repeat No 1",78%
same,cell proliferation,"T47D cell line; 24h, 10 µM, Repeat No 2",81%
same,cell proliferation,"T47D cell line; 24h, 25 µM, Repeat No 1",76%
same,cell proliferation,"T47D cell line; 24h, 25 µM, Repeat No 2",72%
same,cell proliferation,"T47D cell line; 24h, 50 µM, Repeat No 1",77%
same,cell proliferation,"T47D cell line; 24h, 50 µM, Repeat No 2",69%
same,cell proliferation,"T47D cell line; 24h, 75 µM, Repeat No 1",77%
same,cell proliferation,"T47D cell line; 24h, 75 µM, Repeat No 2",73%
same,cell proliferation,"T47D cell line; 24h, 100 µM, Repeat No 1",87%
same,cell proliferation,"T47D cell line; 24h, 100 µM, Repeat No 2",82%
same,cell proliferation,"T47D cell line; 48h, 10 µM, Repeat No 1",80%
same,cell proliferation,"T47D cell line; 48h, 10 µM, Repeat No 2",78%
same,cell proliferation,"T47D cell line; 48h, 25 µM, Repeat No 1",79%
same,cell proliferation,"T47D cell line; 48h, 25 µM, Repeat No 2",75%
same,cell proliferation,"T47D cell line; 48h, 50 µM, Repeat No 1",76%
same,cell proliferation,"T47D cell line; 48h, 50 µM, Repeat No 2",73%
same,cell proliferation,"T47D cell line; 48h, 75 µM, Repeat No 1",83%
same,cell proliferation,"T47D cell line; 48h, 75 µM, Repeat No 2",86%
same,cell proliferation,"T47D cell line; 48h, 100 µM, Repeat No 1",81%
same,cell proliferation,"T47D cell line; 48h, 100 µM, Repeat No 2",79%
same,MBC,[8],31.2 µg/mL
same,MIC,[8],7.81 µg/mL
